# How the values were obtained:
# [1] = tested on: MCF7 (breast adenocarcinoma); test: Antiproliferative activity against MCF7 (XTT colorimetric method); type: cell-based; conditions: Homo sapiens, 72 h treatment
# Protocol: (§1) The in vitro antiproliferative activity of MDS at 1 µM after 72 h treatments was evaluated by a colorimetric method against the human tumor cell lines HeLa (cervix epithelioid carcinoma) and MCF7 (breast adenocarcinoma). Compounds showing more than 40% inhibition at 1 µM in at least three independent assays were evaluated in a range of concentrations between 0.1 nM and 10 µM for the determination of half-maximal inhibitory concentrations (IC50) (Table 1). Paclitaxel, CA-4, and ABT-751 were used as references.
# (§2) MCF7 (human breast carcinoma), SKOV-3 (human ovarian carcinoma), OVCAR-3 (human ovarian carcinoma), OVCAR-8 (human ovarian carcinoma), and HeLa (human cervical carcinoma) cell lines were cultured in Dulbecco’s Modified Eagle’s Medium (DMEM) (Gibco, Thermo Fischer Scientific) containing 10% (v/v) heat-inactivated fetal bovine serum (HIFBS) (Lonza-Cambrex, Karlskoga, Sweden), 2 mM L-glutamine (Lonza-Cambrex, Karlskoga, Sweden), 100 μg/mL streptomycin, and 100 IU/mL penicillin (Lonza-Cambrex) at 37 °C in humidified 95% air and 5% CO2. HT-29 (human colon carcinoma), IGROV-1 (human ovarian carcinoma), and A2780 (human ovarian carcinoma) cell lines were cultured in RPMI 1640 medium (Gibco, Thermo Fischer Scientific) supplemented with 10% HIFBS, 100 μg/mL streptomycin, and 100 IU/mL penicillin at 37 °C in humidified 95% air and 5% CO2 atmosphere. The presence of mycoplasma was routinely checked with MycoAlert kit (Lonza-Cambrex) and only mycoplasma-free cells were used in the experiments. Ovarian tumor cell lines were originally acquired from Dr Atanasio Pandiella from Centro de Investigación del Cáncer (CIC), Salamanca, Spain. HeLa, HT-29 and MCF7 tumor cell lines were provided by Dr Faustino Mollinedo from Centro de Investigaciones Biológicas Margarita Salas, Madrid, Spain.
# (§3) MCF7, HeLa, and HT-29 cell proliferation, when treated with the corresponding compounds, were determined using the XTT (sodium 3’-[1(phenylaminocarbonyl)-3,4-tetrazolium]-bis(4-methoxy-6-nitro)-benzenesulfonic acid hydrate) cell proliferation kit (Roche Molecular Biochemicals, Mannheim, Germany). A freshly prepared mixture of XTT labeling reagent with 0.02% (v/v) PMS (N-methyl-dibenzopyrazine methyl sulfate) electron coupling reagent was added to cells (50 µL/well in 96-well plates, total volume of 160 µL/well). Cells were incubated under standard culture conditions for 4 h (MCF7 and HeLa) or 6 h (HT-29). The absorbance of the formazan product generated was measured at 450 nm using a multi-well plate reader. SKOV-3, OVCAR-3, OVCAR-8, IGROV-1, A-2780 cell proliferation, when treated with the corresponding compound, were determined using MTT (3-(4,5-dimethylthiazol-2-yl)-2,5-diphenyl-2H-tetrazolium bromide) (Sigma-Aldrich, St. Louis, MO, USA). MTT in Phosphate Buffer Saline (PBS) (5 mg/ml) was added to cells (110 µL/well in 24-well plates, total volume of 1110 µL/well). After 1 hour of incubation, the medium was aspirated, and formazan violet crystals were dissolved in dimethyl sulfoxide (DMSO) (500 µL/well). Absorbance was measured at 570 nm in a plate reader (Ultra Evolution, Tecan, Männedorf, Suiza). To determine cell viability, cells in exponential growth phase were seeded (100 µL/well in 96-well plates and 1000 µL/well in 24-well plates) with appropriate cell line concentration (1.5·10^4 cells/mL for MCF7 and HeLa, 3·10^4 cells/mL for HT-29, and 1·10^4 cells/mL for SKOV-3, OVCAR-3, OVCAR-8, IGROV-1, and A-2780) in complete RPMI 1640 or DMEM medium at 37°C and 5% CO2 atmosphere. After 24 h incubation, to allow cells to attach to the plates, all compounds were added at 1 µM concentration and the effect on the proliferation was evaluated 72 h post-treatment. Compounds showing antiproliferative effects at tested concentration were selected for IC50 calculation (50% inhibitory concentration with respect to the untreated controls) from 10^−5 to 10^−10 M concentration. Non-linear curves fitting the experimental data were carried out for each compound. […]
# [2] = Aqueous solubility, saturation shake-flask method, UV absorbance; conditions: pH 7, aqueous buffer, thermodynamic from solid
# Protocol: UV absorbance at three maximum absorbance wavelengths of selected compounds was measured after 48 h shaking and subsequent microfiltration.
# The aqueous solubility of the sulfonamides was determined using an approach based on the saturation shake-flask method. Tested compounds (1–2 mg) were stirred in pH 7.0 phosphate buffer (300 µL) for 48 h at room temperature. The resulting suspension was filtered over a 45 µm filter to discard insoluble residues, and the concentration in the supernatant was measured by UV absorbance. To determine the concentration, a scan between 270 and 400 nm was performed in a Helios-α UV-320 Spectrophotometer (Thermo-Spectronic, Thermo Fischer Scientific, Waltham, MA, USA) for each tested compound. Then, three maximum wavelengths of absorbance per compound were selected from the previous scan and calibration curves were performed at these three wavelengths. Solubility results are given as the average of the three measurements.
# [3] = tested on: HeLa (cervix epithelioid carcinoma); test: Antiproliferative activity against HeLa (XTT colorimetric method); type: cell-based; conditions: Homo sapiens, 72 h treatment
# Protocol: as §1, §2, §3
# [4] = tested on: tubulin (microtubular protein isolated from calf brain); test: Tubulin Polymerization Inhibition (TPI) assay, turbidity; type: biochemical; conditions: 1.5 mg/mL microtubular protein
# Protocol: The effect of all the synthesized compounds on the in vitro tubulin polymerization was evaluated at 10 µM. All the compounds that inhibited polymerization more than 30% were also assayed at 20 µM. IC50 values were calculated for those compounds inhibiting tubulin polymerization by at least 50% at 20 µM (Table 1 and Supplemental Figure S2).
# Microtubular protein was isolated from calf brain according to the modified Shelanski method by two cycles of temperature-dependent assembly/disassembly and stored at −80 °C. Before each use, protein concentration was determined by the Bradford method taking BSA as standard.
# Tubulin polymerization was monitored using a Helios α spectrophotometer by measuring the increase in turbidity at 450 nm, caused by a shift from 4 °C to 37 °C, which allows the in vitro microtubular protein to depolymerize and polymerize, respectively. The assay was carried out in quartz cuvettes containing 1.5 mg/mL microtubular protein and the ligand (except for control cuvette with only DMSO at the same concentration) in a mixture of 0.1 M MES buffer, 1 mM EGTA, 1 mM MgCl2, 1 mM β-ME, and 1.5 mM GTP at pH 6.7 (final volume 500 µL). Cuvettes were preincubated at 20 °C for 30 min, to allow ligand binding to tubulin, and subsequently cooled on ice for 10 min. Then, the experiment starts at 4 °C to establish the initial baseline. The assembly process was initiated by a temperature shift to 37 °C and the turbidity produced by tubulin polymerization can be measured by an absorbance increase. After reaching a stable plateau, the temperature was switched back to 4 °C to return to the initial absorption values (to confirm the reversible nature of the monitored process and to determine whether or not the microtubular tubular protein has stabilized). The difference in amplitude between the stable plateau and the initial baseline of the curves was taken as the degree of tubulin polymerization for each experiment. Comparison with control curves under identical conditions but without ligands yielded TPI as a percentage value. All compounds were tested at 10 µM concentration. Compounds that inhibited tubulin polymerization by at least 30% at 10 µM were tested at 20 µM. IC50 values were calculated for compounds that inhibit tubulin polymerization by more than 50% at 20 µM. Compounds were dissolved in DMSO, and the final solvent concentration never exceeded 4% (v/v), which has been reported not to interfere with the assembly process. All the measurements were carried out in at least two independent experiments using microtubular protein from different preparations.
# [5] = tested on: HT-29 (colon adenocarcinoma); test: Antiproliferative activity against CA-4-resistant HT-29 with or without verapamil (sensitivity to MDR pumps, XTT); type: cell-based, human; conditions: verapamil alone at 10 µM
# Description: Detecting changes in drug potency when inhibiting MDR-mediated efflux reflect that these transporters reduce the intracellular drug concentration. HT-29 has been reported to express moderate levels of MDR1, accounting for a resistant phenotype. A comparison of the antiproliferative IC50 values of each MDS in the presence or absence of verapamil provides an estimate of the susceptibility of each compound to efflux pumps.
# as §2
# MCF7, HeLa, and HT-29 cell proliferation, when treated with the corresponding compounds, were determined using the XTT (sodium 3’-[1(phenylaminocarbonyl)-3,4-tetrazolium]-bis(4-methoxy-6-nitro)-benzenesulfonic acid hydrate) cell proliferation kit (Roche Molecular Biochemicals, Mannheim, Germany). A freshly prepared mixture of XTT labeling reagent with 0.02% (v/v) PMS (N-methyl-dibenzopyrazine methyl sulfate) electron coupling reagent was added to cells (50 µL/well in 96-well plates, total volume of 160 µL/well). Cells were incubated under standard culture conditions for 4 h (MCF7 and HeLa) or 6 h (HT-29). The absorbance of the formazan product generated was measured at 450 nm using a multi-well plate reader. SKOV-3, OVCAR-3, OVCAR-8, IGROV-1, A-2780 cell proliferation, when treated with the corresponding compound, were determined using MTT (3-(4,5-dimethylthiazol-2-yl)-2,5-diphenyl-2H-tetrazolium bromide) (Sigma-Aldrich, St. Louis, MO, USA). MTT in Phosphate Buffer Saline (PBS) (5 mg/ml) was added to cells (110 µL/well in 24-well plates, total volume of 1110 µL/well). After 1 hour of incubation, the medium was aspirated, and formazan violet crystals were dissolved in dimethyl sulfoxide (DMSO) (500 µL/well). Absorbance was measured at 570 nm in a plate reader (Ultra Evolution, Tecan, Männedorf, Suiza). To determine cell viability, cells in exponential growth phase were seeded (100 µL/well in 96-well plates and 1000 µL/well in 24-well plates) with appropriate cell line concentration (1.5·10^4 cells/mL for MCF7 and HeLa, 3·10^4 cells/mL for HT-29, and 1·10^4 cells/mL for SKOV-3, OVCAR-3, OVCAR-8, IGROV-1, and A-2780) in complete RPMI 1640 or DMEM medium at 37°C and 5% CO2 atmosphere. After 24 h incubation, to allow cells to attach to the plates, all compounds were added at 1 µM concentration and the effect on the proliferation was evaluated 72 h post-treatment. […] Non-linear curves fitting the experimental data were carried out for each compound. Compounds were dissolved in DMSO and the final solvent concentrations never exceeded 0.5% (v/v). The control wells included […] with 0.5% (v/v) DMSO and the positive control. 10 µM verapamil was included as a control for the HT-29 cell line.
Structure (SMILES),IC50 [1] [nM],solubility at 48 h [2] [µg/mL],IC50 [3] [nM],IC50 [4] [nM],TPI % 10 µM ([4]; compound at 10 µM) [%],Effect on HT-29 cell proliferation [5]
"COc1ccc(S(=O)(=O)Nc2cccnc2Nc2ccc(O)cc2)cc1 [ABT-751, reference compound]",180,40,388,4400,69,–
"COc1ccc(CCN(C)CCCC(C#N)(c2ccc(OC)c(OC)c2)C(C)C)cc1OC (stereo not drawn) [verapamil, reference compound]",–,–,–,–,–,did not affect cell proliferation
